The source of these data is patent US7288760B2, “Conformational real-time atmospheric and environmental characterization sampling apparatus and method” (Battelle Memorial Institute, priority 2005, dated 2007).

The data set is classed as in vivo. Conditions: dermal delivery via glass cup bulb, approximately 0.0007 g toluene, ~253 g rat, 10-L glass sampling chamber, quadrupole MS m/z=92, throughput 195 mL/min. The method, then:
FIG. 5a illustrates a system 200 for real-time monitoring and/or analysis of analytes released to a sampling environment 30 in conjunction with animal exposure studies, according to another embodiment of the invention. In Example 4 below, a live animal (e.g., rat) 32 placed in a sampling environment 30 is dosed or treated with a chemical or a drug delivered, e.g., via a dermal cup bulb 34 in conjunction with a precision syringe 36 or other delivery means, including but not limited to, dermal patch, injection, or the like. Environment 30 is monitored in real-time via coupling with manifold 20 at the breathing (clearance) rate of the animal until desired target analytes, metabolites, and/or chemical indicators of interest are detected or quantified in the mass-selective detector or instrument comprising system 10. […]
A custom made ˜3-cc glass cup bulb 34 including a septum (not shown) made of silicon sealant (Dow Corning, Baltimore, Md.) was affixed to the dermis of an anesthetized ˜253 g rat 32 using a veterinary bonding compound (e.g., vet bond®, 3M, St. Paul, Minn.) and allowed to affix for ˜12 to 14 hours. […] Alternatively, breathing rate can be determined using a breathing plethysmograph (e.g., a double chamber plethysmograph, Buxco Electronics, Inc., Wilmington, N.C.). […]

SMILES strings stand for the structures.

With `Cc1ccccc1` [toluene], the “Time from exposure to detection of the toluene analyte from the respired breath of animal” value was “about 30 minutes”.
